Usually IC50 stands for the midpoint of a concentration-inhibition curve. Higher therefore signals a need for much substance.

The results in this text go back to patent publication US9193733B2, “Piperidinylcyclobutyl substituted pyrrolopyridine and pyrrolopyrimidine derivatives as JAK inhibitors” (Incyte Corporation, priority 2012, dated 2015).

Structures are written as SMILES.

Holding throughout (type): biochemical
Test [1] concerns the target T1, human JAK2 (a.a. 828-1132) catalytic domain (Homo sapiens, UniProt O60674).
T1 construct: human JAK1 (a.a. 837-1142) and JAK2 (a.a. 828-1132); His tag (N); made in house; host or cells: insect cells (baculovirus)
Put plainly: In vitro JAK kinase assay (HTRF, phosphorylation of a biotinylated peptide), JAK2. As to conditions: 1 mM ATP. In a few lines:
(§1)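 His-tagged JAK1/JAK2 catalytic domains from baculovirus-infected insect cells phosphorylate 500 nM biotinylated peptide at 1 mM ATP in 50 mM Tris pH 7.8, 100 mM NaCl, 5 mM DTT, 0.01% BSA, 1 h at room temperature. EDTA-stopped; SA-APC/Eu-Py20 HTRF read after 40 min; IC50 determined.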
On the technique in general: In TR-FRET formats the signal depends on donor and acceptor labels being close together.

Test [2] has as its system human JAK1 (a.a. 837-1142) catalytic domain. Put plainly: In vitro JAK kinase assay (HTRF, phosphorylation of a biotinylated peptide), JAK1. To be noted: ratio of JAK2 IC50 to JAK1 IC50, 1 mM ATP. In a few lines:
as §1

The target of test [3] is T2, human JAK1 (a.a. 837-1142) catalytic domain (Homo sapiens, UniProt P23458).
T2 construct: human JAK1 (a.a. 837-1142) and JAK2 (a.a. 828-1132); His tag (N); made in house; host or cells: insect cells (baculovirus)
Described as above. As to conditions: 1 mM ATP. In short, it runs like this: as §1

T1 sequence (O60674 828-1132): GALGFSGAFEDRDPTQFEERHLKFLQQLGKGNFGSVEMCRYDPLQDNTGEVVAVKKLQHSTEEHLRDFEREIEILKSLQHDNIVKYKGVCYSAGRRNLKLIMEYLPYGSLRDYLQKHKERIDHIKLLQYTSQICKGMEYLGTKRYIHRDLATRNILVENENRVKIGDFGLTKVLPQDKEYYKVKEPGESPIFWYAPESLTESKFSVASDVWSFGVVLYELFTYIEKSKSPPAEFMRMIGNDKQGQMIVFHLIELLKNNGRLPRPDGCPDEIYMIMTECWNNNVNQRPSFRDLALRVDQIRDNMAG
T2 sequence (P23458 849-1154): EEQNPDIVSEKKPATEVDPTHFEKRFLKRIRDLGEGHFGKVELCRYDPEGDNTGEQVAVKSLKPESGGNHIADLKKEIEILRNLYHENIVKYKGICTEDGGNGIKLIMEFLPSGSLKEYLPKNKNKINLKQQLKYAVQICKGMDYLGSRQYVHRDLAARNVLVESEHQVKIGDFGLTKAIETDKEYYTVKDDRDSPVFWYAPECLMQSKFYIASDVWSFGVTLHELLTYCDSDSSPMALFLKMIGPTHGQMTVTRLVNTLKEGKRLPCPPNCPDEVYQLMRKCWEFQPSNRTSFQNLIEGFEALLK

With `C[C@@H](O)CNCc1cc(OC2CCN([C@H]3C[C@](CC#N)(n4cc(-c5ncnc6[nH]ccc56)cn4)C3)CC2)nc(C(F)(F)F)c1` [Example 14, {trans-3-(4-{[4-({[(2R)-2-hydroxypropyl]amino}methyl)-6-(trifluoromethyl)pyridin-2-yl]oxy}piperidin-1-yl)-1-[4-(7H-pyrrolo[2,3-d]pyrimidin-4-yl)-1H-pyrazol-1-yl]cyclobutyl}acetonitrile], the IC50 in test [1] was 20 to 150 nM; in test [3], less than 20 nM. The JAK2/JAK1 in test [2] is recorded as more than 10.
The like results for `CCNCc1cc(NC2CCN([C@H]3C[C@](CC#N)(n4cc(-c5ncnc6[nH]ccc56)cn4)C3)CC2)nc(C(F)(F)F)c1` [Example 32, {trans-3-(4-{[4-[(ethylamino)methyl]-6-(trifluoromethyl)pyridin-2-yl]amino}piperidin-1-yl)-1-[4-(7H-pyrrolo[2,3-d]pyrimidin-4-yl)-1H-pyrazol-1-yl]cyclobutyl}acetonitrile] were, in that order, 20 to 150 nM, less than 20 nM and more than 10.
For `N#CC[C@]1(n2cc(-c3ncnc4[nH]ccc34)cn2)C[C@H](N2CCC(Nc3cc(CN4CCC4)cc(C(F)(F)F)n3)CC2)C1` [Example 39, {trans-3-(4-{[4-(azetidin-1-ylmethyl)-6-(trifluoromethyl)pyridin-2-yl]amino}piperidin-1-yl)-1-[4-(7H-pyrrolo[2,3-d]pyrimidin-4-yl)-1H-pyrazol-1-yl]cyclobutyl}acetonitrile], the IC50 in test [1] is 20 to 150 nM; in test [3], less than 20 nM. In addition, the JAK2/JAK1 in test [2] was more than 10.
The like results for `N#CC[C@]1(n2cc(-c3ncnc4[nH]ccc34)cn2)C[C@H](N2CCC(Oc3cc(C4(N)COC4)cc(C(F)(F)F)n3)CC2)C1` [Example 50, {trans-3-(4-{[4-(3-aminooxetan-3-yl)-6-(trifluoromethyl)pyridin-2-yl]oxy}piperidin-1-yl)-1-[4-(7H-pyrrolo[2,3-d]pyrimidin-4-yl)-1H-pyrazol-1-yl]cyclobutyl}acetonitrile] were, in that order, 20 to 150 nM, less than 20 nM and more than 10.
As to `N#CC[C@]1(n2cc(-c3ncnc4[nH]ccc34)cn2)C[C@H](N2CCC(Nc3cc(CN4CC[C@H](O)C4)cc(C(F)(F)F)n3)CC2)C1` [Example 43, {trans-3-(4-{[4-{[(3S)-3-hydroxypyrrolidin-1-yl]methyl}-6-(trifluoromethyl)pyridin-2-yl]amino}piperidin-1-yl)-1-[4-(7H-pyrrolo[2,3-d]pyrimidin-4-yl)-1H-pyrazol-1-yl]cyclobutyl}acetonitrile], the IC50 in test [1] is 20 to 150 nM; in test [3], less than 20 nM. Besides, in test [2], the JAK2/JAK1 is reported as more than 10.
The like results for `N#CC[C@]1(n2cc(-c3ccnc4[nH]ccc34)cn2)C[C@H](N2CCC(Oc3cc(CNCCO)cc(C(F)(F)F)n3)CC2)C1` [Example 21, {trans-3-(4-{[4-{[(2-hydroxyethyl)amino]methyl}-6-(trifluoromethyl)pyridin-2-yl]oxy}piperidin-1-yl)-1-[4-(1H-pyrrolo[2,3-b]pyridin-4-yl)-1H-pyrazol-1-yl]cyclobutyl}acetonitrile] were, in that order, 150 to 500 nM, less than 20 nM and more than 10.
For `N#CC[C@]1(n2cc(-c3ncnc4[nH]ccc34)cn2)C[C@H](N2CCC(Oc3cc(Cn4cncn4)cc(C(F)(F)F)n3)CC2)C1` [Example 23, [trans-1-[4-(7H-pyrrolo[2,3-d]pyrimidin-4-yl)-1H-pyrazol-1-yl]-3-(4-{[4-(1H-1,2,4-triazol-1-ylmethyl)-6-(trifluoromethyl)pyridin-2-yl]oxy}piperidin-1-yl)cyclobutyl]acetonitrile] the same measures were 20 to 150 nM, less than 20 nM and more than 10.
